# Values quoted from earlier work as cited in patent US20050153276A1 (priority 2001, published 2005).
# System: human hepatocyte and neuroblastoma cells
# Conditions: cited from earlier work
structure (smiles),measurement,value
CCOP(=O)(OCC)Oc1ccc([N+](=O)[O-])cc1 [paraoxon],effect on cell metabolism (acidification rate),opposite effects on hepatocyte and neuroblastoma cell metabolism
CCOP(=S)(OCC)Oc1ccc([N+](=O)[O-])cc1 [parathion],effect on cell metabolism (acidification rate),opposite effects on hepatocyte and neuroblastoma cell metabolism
